Holding throughout (format): in vivo
Data set [1] relates to Beet Armyworm (Spodoptera exigua, LAPHEG). Nature of the data set: Bioassay on Beet Armyworm (BAW), 128-well diet tray assay. As to conditions: 168 h, 50 μg/cm^2 on artificial diet, second instar larvae, 25° C., five to seven days, average of eight wells, read-out: BAW % Control (or Mortality) rating. The protocol:
(§1) Certain molecules disclosed in this document were tested against BAW and CL using procedures described in the following examples. In the reporting of the results, the “BAW & CL Rating Table” was used (See Table Section).
Bioassays on BAW were conducted using a 128-well diet tray assay. One to five second instar BAW larvae were placed in each well (3 mL) of the diet tray that had been previously filled with approximately 1.5 mL of artificial diet to which 50 μg/cm^2 of the test molecule (dissolved in 50 μL of 90:10 acetone-water mixture) had been applied (to each of eight wells) and then allowed to dry. Trays were covered with a clear self-adhesive cover, vented to allow gas exchange, and held at 25° C., 14:10 light-dark for five to seven days. Percent mortality was recorded for the larvae in each well; activity in the eight wells was then averaged. The results are indicated in the table entitled “Table ABC: Biological Results” (See Table Section).

Data set [2] deals with Yellow Fever Mosquito (Aedes aegypti, AEDSAE). The following applies: about 1 day-old larvae, 96-well plate from 4000 ppm DMSO master, 3 days at room temperature. The protocol: Certain molecules disclosed in this document were tested against YFM using procedures described in the following paragraph. In the reporting of the results, the “GPA & YFM Rating Table” was used (See Table Section).
Master plates containing 400 μg of a molecule dissolved in 100 μL of dimethyl sulfoxide (DMSO) (equivalent to a 4000 ppm solution) are used. A master plate of assembled molecules contains 15 μL per well. To this plate, 135 μL of a 90:10 water/acetone mixture is added to each well. A robot is programmed to dispense 15 μL aspirations from the master plate into an empty 96-well shallow plate (“daughter” plate). There are 6 reps (“daughter” plates) created per master. The created “daughter” plates are then immediately infested with YFM larvae.
The day before plates are to be treated, mosquito eggs are placed in Millipore water containing liver powder to begin hatching (4 g. into 400 mL). After the “daughter” plates are created using the robot, they are infested with 220 μL of the liver powder/larval mosquito mixture (about 1 day-old larvae). After plates are infested with mosquito larvae, a non-evaporative lid is used to cover the plate to reduce drying. Plates are held at room temperature for 3 days prior to grading. After 3 days, each well is observed and scored based on mortality. The results are indicated in the table entitled “Table ABC: Biological Results” (See Table Section).

Data set [3] deals with Cabbage Looper (Trichoplusia ni, TRIPNI). Description: Bioassay on Cabbage Looper (CL), 128-well diet tray assay. The following applies: 168 h, 50 μg/cm^2 on artificial diet, second instar larvae, 25° C., five to seven days, average of eight wells, read-out: CL % Control (or Mortality) rating. On the procedure: as §1
Bioassays on CL were conducted using a 128-well diet tray assay. one to five second instar CL larvae were placed in each well (3 mL) of the diet tray that had been previously filled with 1 mL of artificial diet to which 50 μg/cm^2 of the test molecule (dissolved in 50 μL of 90:10 acetone-water mixture) had been applied (to each of eight wells) and then allowed to dry. Trays were covered with a clear self-adhesive cover, vented to allow gas exchange, and held at 25° C., 14:10 light-dark for five to seven days. Percent mortality was recorded for the larvae in each well; activity in the eight wells was then averaged. The results are indicated in the table entitled “Table ABC: Biological Results” (See Table Section).

The values that follow come from patent publication US9795139B2, “Molecules having pesticidal utility, and intermediates, compositions, and processes, related thereto” (priority 2015, dated 2017).

The term mortality denotes the share of the test organisms that died.

As for `Cc1cc([C@H]2[C@H](C(=O)Nc3ccc(Cl)c(C(=O)NC4(C#N)CC4)c3)C2(Cl)Cl)cc(Cl)c1Cl` (relative stereo) [Molecule F51, trans-2-Chloro-N-(1-cyanocyclopropyl)-5-(2,2-dichloro-3-(3,4-dichloro-5-methylphenyl)cyclopropanecarboxamido)benzamide], the mortality at 50 µg/cm2 in data set [1] and in data set [3] was 50 to 100% throughout. Further, in data set [2], the “YFM % Control (or Mortality) rating” value was “D (No activity noticed in this bioassay)”.
Turning to `O=C(NC1COC1)c1cc(NC(=O)[C@H]2[C@H](c3cc(Cl)cc(Cl)c3)C2(Cl)Cl)ccc1Cl` (relative stereo) [Molecule F53, trans-2-Chloro-5-(2,2-dichloro-3-(3,5-dichlorophenyl)cyclopropanecarboxamido)-N-(oxetan-3-yl)benzamide], the mortality at 50 µg/cm2 in data set [1] and in data set [3] was 50 to 100% in each case. In data set [2], the “YFM % Control (or Mortality) rating” value is reported as “A (80-100)”.
For `CC(C)(C)OC(=O)N1CC(NC(=O)c2cc(NC(=O)[C@H]3[C@H](c4cc(Cl)cc(Cl)c4)C3(Cl)Cl)ccc2Cl)C1` (relative stereo) [Molecule F54, trans-tert-butyl 3-(2-chloro-5-(2,2-dichloro-3-(3,5-dichlorophenyl)cyclopropanecarboxamido)-benzamido)azetidine-1-carboxylate], the mortality at 50 µg/cm2 in data set [1] and in data set [3] was 50 to 100% throughout. For the same compound, the “YFM % Control (or Mortality) rating” value in data set [2] was “D (No activity noticed in this bioassay)”.
As for `C[C@]1(c2cc(Cl)cc(Cl)c2)[C@H](C(=O)Nc2ccc(Cl)c(C(=O)NC3CC(F)(F)C3)c2)C1(Cl)Cl` (relative stereo) [Molecule F61, trans-2-chloro-5-(2,2-dichloro-3-(3,5-dichloro-phenyl)-3-methylcyclopropane-1-carboxamido)-N-(3,3-difluorocyclobutyl)-benzamide], the mortality at 50 µg/cm2 in data set [1] and in data set [3] was 50 to 100% each time. In data set [2], the “YFM % Control (or Mortality) rating” value is recorded as “A (80-100)”.
`C[C@@]1(c2cc(Cl)cc(Cl)c2)[C@H](C(=O)Nc2ccc(Cl)c(C(=O)NC3CC(F)(F)C3)c2)C1(Cl)Cl` (relative stereo) [Molecule F62, cis-2-Chloro-5-(2,2-dichloro-3-(3,5-dichlorophenyl)-3-methylcyclopropane-1-carboxamido)-N-(3,3-difluorocyclobutyl)benzamide]: the mortality at 50 µg/cm2 in data set [1] and in data set [3] was 0 to 50% in each case. For the same compound, in data set [2], the “YFM % Control (or Mortality) rating” value was “D (No activity noticed in this bioassay)”.
On to `O=C1CCC(NC(=O)c2cc(NC(=O)[C@H]3[C@H](c4cc(Cl)cc(Cl)c4)C3(Cl)Cl)ccc2Cl)CC1` (relative stereo) [Molecule F65, trans-2-Chloro-5-(2,2-dichloro-3-(3,5-dichlorophenyl)cyclopropane-1-carboxamido)-N-(4-oxocyclohexyl)benzamide], for which the results for the mortality at 50 µg/cm2 in data set [1] and in data set [3] were 0 to 50% and 50 to 100%, respectively. Also, the “YFM % Control (or Mortality) rating” value in data set [2] is reported as “A (80-100)”.
Consider `N#CC1(NC(=O)c2cc(NC(=O)[C@H]3[C@H](c4ccc(Br)c(Cl)c4)C3(Cl)Cl)ccc2Cl)CC1` (relative stereo) [Molecule F66, trans-5-(3-(4-bromo-3-chlorophenyl)-2,2-dichlorocyclopropane-1-carboxamido)-2-chloro-N-(1-cyanocyclopropyl)benzamide], for which the mortality at 50 µg/cm2 in data set [1] and in data set [3] was 50 to 100% throughout. The “YFM % Control (or Mortality) rating” value in data set [2] was “A (80-100)”.
In the case of `C=Cc1ccc([C@H]2[C@H](C(=O)Nc3ccc(Cl)c(C(=O)NC4(C#N)CC4)c3)C2(Cl)Cl)cc1Cl` (relative stereo) [Molecule F67, trans-2-chloro-N-(1-cyanocyclopropyl)-5-(2,2-dichloro-3-(3-chloro-4-vinylphenyl)cyclopropane-1-carboxamido)benzamide], the mortality at 50 µg/cm2 in data set [1] and in data set [3] was 50 to 100% throughout. The “YFM % Control (or Mortality) rating” value in data set [2] is “A (80-100)”.
For the compound `O=C1CC(NC(=O)c2cc(NC(=O)[C@H]3[C@H](c4cc(Cl)cc(Cl)c4)C3(Cl)Cl)ccc2Cl)C1` (relative stereo) [Molecule F68, trans-2-chloro-5-(2,2-dichloro-3-(3,5-dichloro-phenyl)cyclopropane-1-carboxamido)-N-(3-oxocyclobutyl)benzamide], the mortality at 50 µg/cm2 in data set [1] and in data set [3] was 50 to 100% in each case. Besides, the “YFM % Control (or Mortality) rating” value in data set [2] is given as “A (80-100)”.
Regarding `O=C(NC1CC(F)(F)C1)c1cc(NC(=O)[C@H]2[C@H](c3ccc([N+](=O)[O-])cc3)C2(Cl)Cl)ccc1Cl` (relative stereo) [Molecule F69, trans-2-chloro-5-(2,2-dichloro-3-(4-nitrophenyl)cyclopropane-1-carboxamido)-N-(3,3-difluorocyclobutyl)benzamide], the mortality at 50 µg/cm2 in data set [1] and in data set [3] was 50 to 100% in each case. Moreover, the “YFM % Control (or Mortality) rating” value in data set [2] was “A (80-100)”.
Regarding `Nc1ccc([C@H]2[C@H](C(=O)Nc3ccc(Cl)c(C(=O)NC4CC(F)(F)C4)c3)C2(Cl)Cl)cc1` (relative stereo) [Molecule F70, trans-5-(3-(4-aminophenyl)-2,2-dichlorocyclopropane-1-carboxamido)-2-chloro-N-(3,3-difluorocyclobutyl)benzamide], the mortality at 50 µg/cm2 in data set [1] lay in the range of 0 to 50%; in data set [3] it was 50 to 100%. Moreover, the “YFM % Control (or Mortality) rating” value in data set [2] is reported as “D (No activity noticed in this bioassay)”.
The corresponding values for `O=C1CCC(NC(=O)c2cc(NC(=O)[C@H]3[C@H](c4ccc(F)c(Cl)c4)C3(Cl)Cl)ccc2Cl)CC1` (relative stereo) [Molecule F81, trans-2-Chloro-5-(2,2-dichloro-3-(3-chloro-4-fluorophenyl)cyclopropane-1-carboxamido)-N-(4-oxocyclohexyl)benzamide] are 50 to 100%, 50 to 100% and “A (80-100)”.
The corresponding values for `N#CC1(NC(=O)c2cc(NC(=O)[C@H]3[C@H](c4cc(F)c(Br)c(F)c4)C3(Cl)Cl)ccc2Cl)CC1` (relative stereo) [Molecule F82, trans-5-(3-(4-Bromo-3,5-difluorophenyl)-2,2-dichlorocyclopropane-1-carboxamido)-2-chloro-N-(1-cyanocyclopropyl)benzamide] are 50 to 100%, 50 to 100% and “A (80-100)”.
In the case of `COc1cc([C@H]2[C@H](C(=O)Nc3ccc(Cl)c(C(=O)NC4(C#N)CC4)c3)C2(Cl)Cl)cc(F)c1Br` (relative stereo) [Molecule F83, trans-5-(3-(4-Bromo-3-fluoro-5-methoxyphenyl)-2,2-dichlorocyclopropane-1-carboxamido)-2-chloro-N-(1-cyanocyclopropyl)benzamide], the mortality at 50 µg/cm2 in data set [1] and in data set [3] was 50 to 100% each time. For the same compound, the “YFM % Control (or Mortality) rating” value in data set [2] was “A (80-100)”.
`COc1c(F)cc([C@H]2[C@H](C(=O)Nc3ccc(Cl)c(C(=O)NC4(C#N)CC4)c3)C2(Cl)Cl)cc1Br` (relative stereo) [Molecule F84, trans-5-(3-(3-Bromo-5-fluoro-4-methoxyphenyl)-2,2-dichlorocyclopropane-1-carboxamido)-2-chloro-N-(1-cyanocyclopropyl)benzamide]: the mortality at 50 µg/cm2 in data set [1] and in data set [3] was 50 to 100% each time. For the same compound, the “YFM % Control (or Mortality) rating” value in data set [2] was “A (80-100)”.
